Positions of bridges follow the written chain, without caps; N, C: chain ends. Non-standard residues stand in square brackets, D forms with d. Residues, ends and D or L forms follow the SMILES beside them.

One test addresses rat α9α10 nAChR (Rattus norvegicus, UniProt P43144+Q9JLB5). Nature of the test: cell-based. To be noted: for inhibition at 0.1 µM: read-out: inhibition of ACh-evoked current amplitude; for inhibition of ACh-evoked current amplitude: 0.1 µM.
The target in a further test is human α9α10 nAChR (Homo sapiens, UniProt Q9GZZ6+Q9UGM1). Kind of test: cell-based. To be noted: for inhibition at 10 µM: read-out: inhibition of ACh-evoked currents.
The next test deals with rat α3β2 nAChR (Rattus norvegicus, UniProt P04757+P12390). It is filed as cell-based.
For another test, the target named is rat α4β4 nAChR (Rattus norvegicus, UniProt P09483+P12392). It counts as cell-based.
A further test has as its target rat α4β2 nAChR (Rattus norvegicus, UniProt P09483+P12390). It counts as cell-based.
The target in a further test is rat α2β4 nAChR (Rattus norvegicus, UniProt P12389+P12392). It counts as cell-based.
For another test, the target named is rat α6/α3β4 nAChR (Rattus norvegicus, UniProt P04757+P12392+P43143). It is filed as cell-based.

rat α3β2 nAChR, sequence (P04757 26-499 limits assumed): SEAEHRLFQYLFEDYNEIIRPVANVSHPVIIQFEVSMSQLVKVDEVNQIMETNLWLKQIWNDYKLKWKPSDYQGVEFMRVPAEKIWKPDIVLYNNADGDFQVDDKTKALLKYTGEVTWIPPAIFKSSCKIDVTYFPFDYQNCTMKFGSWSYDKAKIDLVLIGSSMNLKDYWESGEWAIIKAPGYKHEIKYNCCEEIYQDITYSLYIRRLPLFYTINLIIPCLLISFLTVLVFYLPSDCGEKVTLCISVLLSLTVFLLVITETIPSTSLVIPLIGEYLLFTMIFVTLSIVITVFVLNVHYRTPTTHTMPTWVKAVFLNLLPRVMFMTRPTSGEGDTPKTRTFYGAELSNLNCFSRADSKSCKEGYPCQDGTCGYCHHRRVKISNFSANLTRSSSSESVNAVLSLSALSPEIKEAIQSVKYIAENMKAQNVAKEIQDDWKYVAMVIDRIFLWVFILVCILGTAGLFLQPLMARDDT
rat α3β2 nAChR, sequence (P12390 25-500 limits assumed): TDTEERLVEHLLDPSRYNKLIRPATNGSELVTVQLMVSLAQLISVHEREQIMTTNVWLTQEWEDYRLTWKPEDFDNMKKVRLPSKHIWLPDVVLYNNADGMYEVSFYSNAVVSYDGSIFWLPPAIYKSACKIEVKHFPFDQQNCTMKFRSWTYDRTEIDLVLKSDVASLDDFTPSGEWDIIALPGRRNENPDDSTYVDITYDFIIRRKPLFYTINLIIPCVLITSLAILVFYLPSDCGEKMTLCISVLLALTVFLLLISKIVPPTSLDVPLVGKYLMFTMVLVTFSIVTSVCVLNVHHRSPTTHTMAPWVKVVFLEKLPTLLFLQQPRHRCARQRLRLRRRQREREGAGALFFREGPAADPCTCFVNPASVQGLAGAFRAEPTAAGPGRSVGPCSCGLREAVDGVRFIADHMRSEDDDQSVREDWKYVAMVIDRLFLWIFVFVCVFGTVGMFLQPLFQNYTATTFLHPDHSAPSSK
rat α9α10 nAChR, sequence (P43144 26-479 limits assumed): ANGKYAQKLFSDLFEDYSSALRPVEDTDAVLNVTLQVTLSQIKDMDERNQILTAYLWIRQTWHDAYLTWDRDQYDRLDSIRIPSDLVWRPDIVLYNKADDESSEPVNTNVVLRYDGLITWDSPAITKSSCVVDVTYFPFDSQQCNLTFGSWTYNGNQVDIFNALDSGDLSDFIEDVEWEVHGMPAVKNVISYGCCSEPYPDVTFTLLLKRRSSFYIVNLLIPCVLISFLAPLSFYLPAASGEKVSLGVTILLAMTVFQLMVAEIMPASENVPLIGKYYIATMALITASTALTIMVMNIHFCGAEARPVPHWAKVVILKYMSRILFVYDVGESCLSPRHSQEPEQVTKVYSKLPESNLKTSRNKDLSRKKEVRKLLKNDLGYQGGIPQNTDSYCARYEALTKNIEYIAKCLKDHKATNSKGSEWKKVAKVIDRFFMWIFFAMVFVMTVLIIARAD
rat α9α10 nAChR, sequence (Q9JLB5 25-447 limits assumed): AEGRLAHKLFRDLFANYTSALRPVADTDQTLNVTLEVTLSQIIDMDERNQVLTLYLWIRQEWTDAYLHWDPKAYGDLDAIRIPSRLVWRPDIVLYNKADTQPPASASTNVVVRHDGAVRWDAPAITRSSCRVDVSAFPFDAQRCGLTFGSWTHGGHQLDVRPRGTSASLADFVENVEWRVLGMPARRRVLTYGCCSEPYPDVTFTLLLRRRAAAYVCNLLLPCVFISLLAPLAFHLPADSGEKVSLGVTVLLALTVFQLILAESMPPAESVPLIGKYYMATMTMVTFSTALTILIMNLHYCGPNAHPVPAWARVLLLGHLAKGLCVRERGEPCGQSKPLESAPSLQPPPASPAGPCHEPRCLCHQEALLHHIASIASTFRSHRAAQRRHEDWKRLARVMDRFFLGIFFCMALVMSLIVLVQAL
rat α2β4 nAChR, sequence (P12389 28-511 limits assumed): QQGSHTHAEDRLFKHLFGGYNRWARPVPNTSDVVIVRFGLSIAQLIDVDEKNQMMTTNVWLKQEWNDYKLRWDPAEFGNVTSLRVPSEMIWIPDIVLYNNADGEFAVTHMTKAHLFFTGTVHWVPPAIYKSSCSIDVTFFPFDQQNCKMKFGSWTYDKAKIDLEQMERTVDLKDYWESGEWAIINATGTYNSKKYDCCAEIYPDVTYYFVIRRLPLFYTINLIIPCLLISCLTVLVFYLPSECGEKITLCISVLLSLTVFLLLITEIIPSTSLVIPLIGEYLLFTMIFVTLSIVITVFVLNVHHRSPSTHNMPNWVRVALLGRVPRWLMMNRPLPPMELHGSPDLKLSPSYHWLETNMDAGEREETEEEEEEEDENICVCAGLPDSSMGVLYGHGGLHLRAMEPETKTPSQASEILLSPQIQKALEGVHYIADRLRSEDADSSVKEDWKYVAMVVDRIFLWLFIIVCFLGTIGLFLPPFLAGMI
rat α2β4 nAChR, sequence (P12392 21-495 limits assumed): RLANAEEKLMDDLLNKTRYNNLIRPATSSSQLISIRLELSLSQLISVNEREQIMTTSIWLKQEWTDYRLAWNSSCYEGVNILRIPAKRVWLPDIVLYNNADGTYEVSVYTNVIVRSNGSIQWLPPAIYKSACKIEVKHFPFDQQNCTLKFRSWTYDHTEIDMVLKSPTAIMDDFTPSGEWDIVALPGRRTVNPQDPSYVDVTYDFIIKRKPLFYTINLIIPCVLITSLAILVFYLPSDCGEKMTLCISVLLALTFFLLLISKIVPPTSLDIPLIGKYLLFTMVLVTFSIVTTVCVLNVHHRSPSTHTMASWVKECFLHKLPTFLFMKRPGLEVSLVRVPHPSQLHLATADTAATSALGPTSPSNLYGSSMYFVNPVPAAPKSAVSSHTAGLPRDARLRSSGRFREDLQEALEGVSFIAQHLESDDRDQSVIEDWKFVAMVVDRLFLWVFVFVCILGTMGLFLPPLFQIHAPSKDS
rat α4β2 nAChR, sequence (P09483 31-630 limits assumed): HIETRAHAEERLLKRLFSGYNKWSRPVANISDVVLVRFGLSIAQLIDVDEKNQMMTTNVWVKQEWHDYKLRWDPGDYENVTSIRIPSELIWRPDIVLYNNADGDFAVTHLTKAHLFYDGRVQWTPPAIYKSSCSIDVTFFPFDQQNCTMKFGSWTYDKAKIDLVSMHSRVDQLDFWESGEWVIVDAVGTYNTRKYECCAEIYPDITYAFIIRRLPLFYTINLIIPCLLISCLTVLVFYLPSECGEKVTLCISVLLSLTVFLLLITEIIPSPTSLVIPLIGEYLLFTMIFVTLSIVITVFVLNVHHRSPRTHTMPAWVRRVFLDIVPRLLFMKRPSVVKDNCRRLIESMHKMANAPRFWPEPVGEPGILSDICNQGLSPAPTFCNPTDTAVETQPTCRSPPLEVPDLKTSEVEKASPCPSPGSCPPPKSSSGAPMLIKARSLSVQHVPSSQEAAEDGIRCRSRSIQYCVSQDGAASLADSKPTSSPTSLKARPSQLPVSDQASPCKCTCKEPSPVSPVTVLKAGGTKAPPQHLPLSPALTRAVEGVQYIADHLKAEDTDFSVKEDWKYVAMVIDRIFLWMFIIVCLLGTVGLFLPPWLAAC
rat α4β2 nAChR, sequence (P12390 25-500 limits assumed): as the sequence (P12390 25-500 limits assumed) above
rat α4β4 nAChR, sequence (P09483 31-630 limits assumed): as the sequence (P09483 31-630 limits assumed) above
rat α4β4 nAChR, sequence (P12392 21-495 limits assumed): as the sequence (P12392 21-495 limits assumed) above
human α9α10 nAChR, sequence (Q9UGM1 26-479 limits assumed): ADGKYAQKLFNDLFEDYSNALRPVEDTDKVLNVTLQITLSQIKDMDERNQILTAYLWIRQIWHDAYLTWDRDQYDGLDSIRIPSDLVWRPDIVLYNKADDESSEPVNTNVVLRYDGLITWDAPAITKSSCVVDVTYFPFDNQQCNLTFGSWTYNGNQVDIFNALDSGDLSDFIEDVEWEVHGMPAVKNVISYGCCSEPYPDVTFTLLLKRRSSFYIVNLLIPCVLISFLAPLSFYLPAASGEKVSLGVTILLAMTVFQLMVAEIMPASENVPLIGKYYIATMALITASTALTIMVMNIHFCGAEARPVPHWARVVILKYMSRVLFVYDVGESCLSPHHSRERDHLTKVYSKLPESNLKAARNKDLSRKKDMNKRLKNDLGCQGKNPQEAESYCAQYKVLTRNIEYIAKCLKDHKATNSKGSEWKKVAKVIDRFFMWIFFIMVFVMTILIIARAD
human α9α10 nAChR, sequence (Q9GZZ6 25-450 limits assumed): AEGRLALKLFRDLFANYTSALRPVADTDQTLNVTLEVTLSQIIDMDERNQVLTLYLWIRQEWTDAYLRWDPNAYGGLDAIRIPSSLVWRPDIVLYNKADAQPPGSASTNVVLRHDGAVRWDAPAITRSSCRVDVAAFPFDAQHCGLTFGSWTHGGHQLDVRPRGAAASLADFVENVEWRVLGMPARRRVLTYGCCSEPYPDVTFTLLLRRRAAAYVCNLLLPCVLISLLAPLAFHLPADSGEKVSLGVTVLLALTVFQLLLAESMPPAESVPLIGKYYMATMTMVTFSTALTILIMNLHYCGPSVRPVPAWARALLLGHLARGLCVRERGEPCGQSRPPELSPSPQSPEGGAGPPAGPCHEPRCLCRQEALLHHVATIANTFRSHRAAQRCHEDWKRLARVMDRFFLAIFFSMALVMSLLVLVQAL

Regarding `C[C@@H](N)C(=O)N[C@H]1CSSC[C@@H]2NC(=O)[C@H](CCCNC(=N)N)NC(=O)[C@@H]3CCCN3C(=O)[C@H](CC(=O)O)NC(=O)[C@H](CO)NC(=O)[C@H](CSSC[C@@H](C(=O)N[C@@H](CCCNC(=N)N)C(=O)O)NC(=O)[C@H](CCCNC(=N)N)NC(=O)[C@H](Cc3ccc(O)cc3)NC(=O)[C@H](CCCNC(=N)N)NC2=O)NC1=O` [Compound 1] (H-[dA]CCSDPRCRYRCR-OH; disulfide 2-8, 3-12), at rat α9α10 nAChR, the half-maximal inhibitory concentration (IC50) is 0.0411 µM and the inhibition at 0.1 µM turned out to be 70.6 ± 2%. The half-inhibitory concentration (IC50) against human α9α10 nAChR was greater than 10 µM.

In the case of `N=C(N)NCCC[C@H]1NC(=O)[C@H](Cc2ccc(O)cc2)NC(=O)[C@@H](CCCNC(=N)N)NC(=O)[C@@H]2CSSC[C@H](NC(=O)CN)C(=O)N[C@@H](CSSC[C@@H](C(N)=O)NC1=O)C(=O)N[C@@H](CO)C(=O)N[C@@H](CC(=O)O)C(=O)N1CCC[C@H]1C(=O)N[C@H](CCCNC(=N)N)C(=O)N2` [Compound 15] (H-GCCSDP[dR]C[dR]Y[dR]C-NH2; disulfide 2-8, 3-12), at rat α9α10 nAChR, the IC50 amounted to 0.288 µM and the “inhibition of ACh-evoked current amplitude” value is “did not inhibit”. In addition, at human α9α10 nAChR, the IC50 was determined as 0.68 µM and the inhibition at 10 µM was in the range of 70 to 90%. On rat α3β2 nAChR, the “activity against rat α3β2 nAChR” value is “inactive”. Also, at rat α4β4 nAChR, the “activity against rat α4β4 nAChR” value was “inactive”. Besides, the “activity against rat α4β2 nAChR” value on rat α4β2 nAChR was “inactive”. In addition, the “activity against rat α2β4 nAChR” value on rat α2β4 nAChR is “inactive”. Also, at rat α6/α3β4 nAChR, the “activity against rat α6/α3β4 nAChR” value was “inactive”.

As for `N=C(N)NCCC[C@H](NC(=O)[C@@H]1CSSC[C@@H]2NC(=O)[C@@H](NC(=O)CN)CSSC[C@H](NC(=O)[C@H](CCCNC(=N)N)NC(=O)[C@@H]3CCCN3C(=O)[C@H](CC(=O)O)NC(=O)[C@@H](CO)NC2=O)C(=O)N[C@@H](CCCNC(=N)N)C(=O)N[C@@H](Cc2ccc(O)cc2)C(=O)N[C@@H](CCCNC(=N)N)C(=O)N1)C(=O)O` [Compound 4], the “activity at a concentration of 10 μM” value on rat α9α10 nAChR is “not active”.

As to `N=C(N)NCCC[C@H](NC(=O)[C@@H]1CSSC[C@@H]2NC(=O)[C@@H](NC(=O)CN)CSSC[C@H](NC(=O)[C@H](CCCNC(=N)N)NC(=O)[C@@H]3CCCN3C(=O)[C@@H](CC(=O)O)NC(=O)[C@H](CO)NC2=O)C(=O)N[C@@H](CCCNC(=N)N)C(=O)N[C@@H](Cc2ccc(O)cc2)C(=O)N[C@@H](CCCNC(=N)N)C(=O)N1)C(=O)O` [Compound 5], the “activity at a concentration of 10 μM” value on rat α9α10 nAChR was “not active”.

In the case of `N=C(N)NCCC[C@@H]1NC(=O)[C@@H]2CSSC[C@H](NC(=O)CN)C(=O)N[C@@H](CSSC[C@@H](C(=O)N[C@H](CCCNC(=N)N)C(=O)O)NC(=O)[C@H](CCCNC(=N)N)NC(=O)[C@H](Cc3ccc(O)cc3)NC1=O)C(=O)N[C@@H](CO)C(=O)N[C@@H](CC(=O)O)C(=O)N1CCC[C@H]1C(=O)N[C@@H](CCCNC(=N)N)C(=O)N2` [Compound 13], the inhibition at 0.1 µM at rat α9α10 nAChR was found to be 97.2 ± 0.05%. Moreover, the inhibition at 10 µM at human α9α10 nAChR is 70 to 90%. Besides, on rat α3β2 nAChR, the “activity against rat α3β2 nAChR” value is “inactive”. Besides, at rat α4β4 nAChR, the “activity against rat α4β4 nAChR” value is “inactive”. The “activity against rat α4β2 nAChR” value at rat α4β2 nAChR was “inactive”. The “activity against rat α2β4 nAChR” value on rat α2β4 nAChR was “inactive”. The “activity against rat α6/α3β4 nAChR” value on rat α6/α3β4 nAChR is “inactive”.

As for `N=C(N)NCCC[C@H](NC(=O)[C@@H]1CSSC[C@@H]2NC(=O)[C@@H](NC(=O)CN)CSSC[C@H](NC(=O)[C@H](CCCNC(=N)N)NC(=O)[C@@H]3CCCN3C(=O)[C@H](CC(=O)O)NC(=O)[C@H](CO)NC2=O)C(=O)N[C@@H](CCCNC(=N)N)C(=O)N[C@@H](Cc2ccc(O)cc2)C(=O)N[C@H](CCCNC(=N)N)C(=O)N1)C(=O)O` [Compound 11], the “activity at a concentration of 10 μM” value at rat α9α10 nAChR was “not active”.

Take `N=C(N)NCCC[C@@H](NC(=O)[C@@H]1CSSC[C@@H]2NC(=O)[C@@H](NC(=O)CN)CSSC[C@H](NC(=O)[C@@H](CCCNC(=N)N)NC(=O)[C@@H]3CCCN3C(=O)[C@H](CC(=O)O)NC(=O)[C@H](CO)NC2=O)C(=O)N[C@H](CCCNC(=N)N)C(=O)N[C@@H](Cc2ccc(O)cc2)C(=O)N[C@H](CCCNC(=N)N)C(=O)N1)C(=O)O` [Compound 14]: on rat α9α10 nAChR, the “inhibition of ACh-evoked current amplitude” value is given as “did not inhibit”. The inhibition at 10 µM on human α9α10 nAChR fell in the range of 70 to 90%. The “activity against rat α3β2 nAChR” value on rat α3β2 nAChR is “inactive”. Moreover, at rat α4β4 nAChR, the “activity against rat α4β4 nAChR” value is “inactive”. In addition, at rat α4β2 nAChR, the “activity against rat α4β2 nAChR” value is “inactive”. On rat α2β4 nAChR, the “activity against rat α2β4 nAChR” value was “inactive”. In addition, the “activity against rat α6/α3β4 nAChR” value at rat α6/α3β4 nAChR is “inactive”.

`N=C(N)NCCC[C@H](NC(=O)[C@@H]1CSSC[C@@H]2NC(=O)[C@@H](NC(=O)CN)CSSC[C@H](NC(=O)[C@H](CCCNC(=N)N)NC(=O)[C@H]3CCCN3C(=O)[C@H](CC(=O)O)NC(=O)[C@H](CO)NC2=O)C(=O)N[C@@H](CCCNC(=N)N)C(=O)N[C@@H](Cc2ccc(O)cc2)C(=O)N[C@@H](CCCNC(=N)N)C(=O)N1)C(=O)O` [Compound 6]: the “activity at a concentration of 10 μM” value on rat α9α10 nAChR is given as “not active”.

Regarding `N=C(N)NCCC[C@H](NC(=O)[C@@H]1CSSC[C@H]2NC(=O)[C@@H](NC(=O)CN)CSSC[C@H](NC(=O)[C@H](CCCNC(=N)N)NC(=O)[C@@H]3CCCN3C(=O)[C@H](CC(=O)O)NC(=O)[C@H](CO)NC2=O)C(=O)N[C@@H](CCCNC(=N)N)C(=O)N[C@@H](Cc2ccc(O)cc2)C(=O)N[C@@H](CCCNC(=N)N)C(=O)N1)C(=O)O` [Compound 3], the inhibition at 0.1 µM at rat α9α10 nAChR was found to be 78.7 ± 2%.

`N=C(N)NCCC[C@H](NC(=O)[C@@H]1CSSC[C@@H]2NC(=O)[C@@H](NC(=O)CN)CSSC[C@H](NC(=O)[C@@H](CCCNC(=N)N)NC(=O)[C@@H]3CCCN3C(=O)[C@H](CC(=O)O)NC(=O)[C@H](CO)NC2=O)C(=O)N[C@@H](CCCNC(=N)N)C(=O)N[C@@H](Cc2ccc(O)cc2)C(=O)N[C@@H](CCCNC(=N)N)C(=O)N1)C(=O)O` [Compound 7]: on rat α9α10 nAChR, the “activity at a concentration of 10 μM” value is recorded as “not active”.

The values are drawn from PMC6472032 (Marine Drugs, 2019).
